Patent publication US7160909B2, “Cyclopenta[b]indole derivatives as sPLA2 inhibitors” (Eli Lilly and Company, priority 2001, dated 2007)

Target: T1, recombinant human secreted phospholipase A2 (Homo sapiens, UniProt P14555)
T1 sequence (P14555 21-144): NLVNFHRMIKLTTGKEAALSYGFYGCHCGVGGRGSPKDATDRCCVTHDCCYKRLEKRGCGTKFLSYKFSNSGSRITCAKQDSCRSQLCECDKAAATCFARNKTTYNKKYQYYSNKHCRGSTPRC
Assay: chromogenic assay of recombinant human secreted phospholipase A2
Assay type: biochemical
Settings: diheptanoyl thio-PC substrate, pH 7.5, 40° C. for 30 minutes, absorbance at 405 nanometers, triplicate
Text: The following chromogenic assay procedure was used to identify and evaluate inhibitors of recombinant human secreted phospholipase A2. The assay described herein has been adapted for high volume screening using 96 well microtiter plates. A general description of this assay method is found in the article, “Analysis of Human Synovial Fluid Phospholipase A2 on Short Chain Phosphatidylcholine-Mixed Micelles: Development of a Spectrophotometric Assay Suitable for a Microtiterplate Reader”, by Laure J. Reynolds, Lori L. Hughes, and Edward A Dennis, Analytical Biochemistry, 204, pp. 190–197, 1992 (the disclosure of which is incorporated herein by reference): […]
A measured volume of racemic dipheptanoyl thio PC supplied in chloroform at a concentration of 100 mg/ml is taken to dryness and redissolved in 10 millimolar TRITON X-100™ nonionic detergent aqueous solution. […]
• 1. […] Read absorbance of wells at 405 nanometers with an automatic plate reader.
Tests were done in triplicate. […] Compounds initially found to be active were re-assayed to confirm their activity and, if sufficiently active, IC50 values were determined. […] In all cases, % inhibition measured at 405 nanometers generated by enzyme reactions containing inhibitors relative to the uninhibited control reactions was determined. […]

IC50: 0.046 µM
SMILES: NC(=O)C1CCc2c1c1c(OCC(=O)O)cccc1n2Cc1ccccc1 (stereo not shown) [Example 1, (4-Benzyl-1-carbamoyl-1,2,3,4-tetrahydro-cyclopenta[b]indol-8-yloxy)-acetic acid]
